The values that follow come from patent publication US20250114331A1, “CONCURRENT TARGETING OF ONCOGENIC PATHWAYS TO ENHANCE CHEMOTHERAPY AND IMMUNOTHERAPY” (THE JOHNS HOPKINS UNIVERSITY, priority 2021, published 2025).

The conditions of series [1]: used clinically, or in clinical trials; cited from earlier work.
The test system of series [2] is H1437 xenografts. As to the kind of experiment: H1437 xenograft treatment. The series is classed as in vivo, NSG mice. To be noted: verteporfin 50 mg/kg i.p. three times a week; S3I-201 5 mg/kg i.p. every day. An excerpt:
(§1) For therapeutic experiments, 4- to 5-week-old NOD/SCID/IL2Ry−/− (NSG) mice were obtained from the Johns Hopkins Medical Institute's (Baltimore, MD) animal care facility. We injected H1299 cells (1×106) and H1437 cells (1×106), which were suspended in the mixture as described above, subcutaneously into both flanks. For the patient-derived xenograft (PDX) models, 13 PDX blocks (CTG0162, 0178, 0502, 0848, 1309, 1351, 1358, 1361, 1762, 1885, 2017, 2481, and 2708) were obtained from Champion Oncology. All these PDXs were established from primary lung adenocarcinoma tumors. The tumor tissues were cut into 4×2 mm pieces and implanted in the subcutaneous spaces of both flanks. When tumor volumes reached to 200+50 mm3, mice were randomly assigned to six experimental groups [control, chemo (cisplatin+gemcitabine), chemo+verteporfin, chemo+S3I-201, “all” (cisplatin+gemcitabine+verteporfin+S3I-201), and verteporfin+S3I-201] at 5 mice per group. Cisplatin (Sigma-Aldrich; #P4394), gemcitabine (Medkoo; #100410), S3I-201 (MedKoo; #202541), and verteporfin (Sigma-Aldrich; #1711461) were used to treat the mice. Cisplatin (2.5 mg/kg) and gemcitabine (120 mg/kg) were administrated via intraperitoneal injection once a week (22). […] Each tumor volume was measured every 3 days. Therapeutic efficacy was evaluated from percentage change of the tumor volume compared with the tumor size before treatment.

The subject of series [3] is MB49, UPPL596 and BBN 975. As to the kind of experiment: Cell derived xenografts treated with verteporfin. The series is classed as in vivo, C57BL/6 mice. Here is the method:
In vivo xenograft assay and treatment. For in vivo xenograft, cells were suspended in 100 μL of a 1:1 mixture of serum-free DMEM and Cultrex Stem Cell Qualified Reduced Growth Factor Basement Membrane Extract (Trevigen, Gaithersburg, USA), and then injected subcutaneously into the both flanks of C57BL/6 mice for MB49/UPPL595/BBN975 cells. For treatment, animals will be randomized to different treatment groups of 5 mice after growth of tumors to 100 mm3. The potential drugs are anti-PD-L1 monoclonal antibody (B7-H1, Bio X Cell, West Lebanon, USA) and verteporfin (NedKoo, Morrisville, USA). Verteporfin (50 mg/kg) will be administered via i.p. every other day. Anti-PD-L1 monoclonal antibody and the corresponding isotype antibody (200 μg/mouse) were administered via ip injection every 3 to 4 days. Treatment was performed for 14 days. To test the pharmacological inhibition of YAP1 on in vivo tumor growth in NSG and immune competent mice, CDXs were developed using three different mouse derived cancer cell lines (MB49, UPPL596 and BBN 975). Verteporfin was administered interperitoneally at a dose of 50 mg/kg body weight at every other day. […] Tumor mass values also indicate similar trend (FIG. 23C-23E; bottom).

Series [4] relates to H1299 xenografts. Briefly: H1299 xenograft treatment. To be noted: verteporfin 50 mg/kg i.p. three times a week; S3I-201 5 mg/kg i.p. every day. The series is classed as in vivo, NSG mice.
Excerpt: as §1

With `C=Cc1c(C)c2cc3nc(cc4[nH]c(cc5nc(cc1[nH]2)C(C)=C5CCC(=O)O)c(CCC(=O)OC)c4C)[C@@]1(C)C3=CC=C(C(=O)OC)[C@H]1C(=O)OC` [verteporfin, 3-[(23S,24R)-14-ethenyl-5-(3-methoxy-3-oxopropyl)-22,23-bis(methoxycarbonyl)-4,10,15,24-tetramethyl-25,26,27,28-tetraazahexacyclo[16.6.1.13,6.18,11.113,16.019,24]octacosa-1,3,5,7,9,11(27),12,14,16,18(25),19,21-dodecaen-9-yl]propanoic acid], in series [1], the adverse effects entry is listed as “few severe adverse effects were reported”. In addition, the tumor growth entry in series [2] was “did not significantly affect tumor growth”; in series [3] (50 mg/kg body weight i.p. every other day, immune competent mice), “significant regression in tumor growth”; in series [4], “inhibited growth”. The “CCN1 and CCN2 expression (YAP1 downstream genes)” value in series [3] (RT-qPCR) is given as “downregulated”. In addition, the “YAP1 expression in the tumor tissue” value in series [3] (pharmacodynamic analysis) is “decrease YAP1 expression”.
